Legend:
[1] = molecular target: T1, tubulin (Sus scrofa, UniProt P02554); experiment: Fluorescence-based tubulin polymerization assay; type: biochemical
T1 construct: purchased Cytoskeleton, Inc. BK011P
Experimental: Paclitaxel and CA4 were used as positive control drugs (a polymerization enhancer and an inhibitor, respectively) in addition to the negative control group (FIG. 32).
The fluorescence-based tubulin polymerization was determined by using a kit supplied by Cytoskeleton, Inc. (cat #=BK011P). Its basic principle is that the fluorescence reporter increases as it is incorporated into microtubules during the course of polymerization. The assay was performed following the experimental procedure as described in version 2.1 of the tubulin polymerization assay kit manual. Briefly, the test drug (final concentration=3 μM) was added to a mixture of tubulin and GTP in a buffer solution, and the reaction mixture was incubated at 37° C. Fluorescence was monitored (excitation=360 nm and emission=450 nm) by using a fluorescence plate reader (SpectraMax Gemini EM, Molecular device). Paclitaxel and CA4 were included in the assay as positive controls in addition to the negative control (vehicle only).

[2] = test system: MCF-7 cells; experiment: Dark toxicity, MTT cell viability (Example 4); type: cell-based; details: Homo sapiens, MCF7, light or radiation study; MCF-7, 96 hr, no irradiation
Experimental: MCF-7 cells (5,000 cells/well) were seeded in 96 well plates. After the plates were incubated for 24 hr, the culture medium was aspirated and the cells were washed with cold PBS (100 μL) once. Then, prodrug in the 200 μL culture media was added to cells. The final concentrations ranging from 1 nM to 1 μM were used to perform concentration dependent cell viability and 25 nM prodrug was used to perform time dependent drug release study. After 96 hr incubation, the cell viability was determined by MTT assay detailed below. The experiments were performed in triplicate. IC50 values were calculated with GraphPad Prism 5.
Cell viability was assessed by MIT assay.^89 In brief, after thoroughly washing the cells 2× with PBS buffer, the cells were treated with 200 μL 0.5 mg/mL MIT (3-(4,5-dimethylthiazol-2-yl)-2,5-diphenyltetrazolium bromide, a yellow tetrazole). Subsequently, the cells were incubated at 37° C. under a humidified atmosphere of 5% CO2 for 4 h. After 4 h of incubation, the solution from each well was taken out, and washed with PBS one time and added 100 μL DMSO. The plates were shaken at room temperature for 10 min and read immediately at 570 nm on a microplate reader (Spectra max, Molecular devices). Cell viability (%) was expressed as a ratio of treated cells to control cells.

[3] = test system: MCF-7 cells; experiment: Dark toxicity, MTT (Example 5); type: cell-based; details: Homo sapiens, MCF7, 72 h; MCF-7, dark, 3 days; read-out: IC50D (dark toxicity)
Experimental: It seemed that the bulky groups, CMP-L and CMP-NCL, reduced the cytotoxic activity of CA4, presumably through the interference of its binding to tubulin as estimated by the modeling study.
MCF-7 cells were maintained in minimum essential medium (α-MEM) supplemented with 10% bovine growth serum, 2 mM L-glutamine, 50 units/mL penicillin G, 50 μg/mL streptomycin and 1.0 μg/mL fungizone. MCF-7 cells (5,000 cells/well) were seeded on 96-well plates in the medium and then incubated for 24 h at 37° C. in 5% CO2. Stock solutions (2 mM) were prepared in DMSO. The stocks were further diluted with medium to get necessary final concentrations. The diluted solution (10 μL) was then added to each well (190 μL). The plates were incubated for 24 h and then removed from the incubator. For the phototoxicity study: The plate without a cover was placed on an orbital shaker (Lab-line, Barnstead International) and irradiated by using a diode laser (690 nm, 5.6 mW/cm^2) for 30 min. To ensure uniformity of the light during the irradiation, each plate was shaken gently on an orbital shaker. For the dark toxicity study: Plates were kept in the dark for 30 min, and then returned to the incubator. Cell viability was determined after 3 days by using the MTT assay. Briefly, a 10 μL solution of MTT (10 mg in 1 mL PBS buffer) was added to each well and the plate was incubated for 4 h. Then, the MTT solution was removed and the cells were dissolved in 200 μL of DMSO and the absorbance within each well was measured at 570 nm with background subtraction at 650 nm. The cell viability was then quantified by measuring the absorbance of the treated wells compared to that of the untreated wells (controls) and expressed as a percentage.

[4] = test system: colon 26 cells; experiment: Antitumor efficacy study, s.c. colon 26 tumors; type: in vivo, BALB/c mice; details: similar dose, pilot studies
Experimental: The antitumor effects of the prodrugs after irradiation were evaluated by using a mouse tumor model: BALB/c mice having s.c. tumors produced by injection of colon 26 cells. After 1.5 h-post i.p. injection of prodrugs, each tumor was irradiated by 690 nm diode laser (360 J/cm^2=200 mW/cm^2 for 30 min) on days 0, 1 and 2. The treatment conditions were determined from pilot studies although those conditions might not have been the optimal conditions.
Four- to six-week-old BALB/c mice (18-20 g, Charles River Laboratories, Inc.) were used for the murine tumor model. The mice were implanted s.c. with 2×10^6 colon 26 cells in PBS (100 μL) on the lower back-neck region. Tumor growth was monitored with digital caliper. Two dimensions l and w (l: the longest axis of tumor and w: the axis perpendicular to l) were used to calculate tumor volume (lw^2/2). Mice with a tumor of the diameter 3-5 mm were used for the experiments.
Samples were filtered using 0.2 μm sterile syringe filter. To each mouse, 200 μL of sample was injected via i.p. once a day on day 0, 1, and 2. Then, 1 h 30 min later mice were anesthetized with ketamine 80 mgkg^−1 and xylazine 6 mgkg^−1, i.p. injection. Tumors were irradiated with a 690 nm diode laser at 200 mW/cm^2 for 30 min (360 J/cm^2). Tumor size was measured with the digital caliper every day after the treatment.

[5] = 1H-NMR of drugs and model linker compound with CMP-OMe before and after irradiation; type: physicochemical
Source text: The cleavage of aminoacrylate linkers after irradiation was supported by the increased coumarin fluorescence of 9 by irradiation (FIGS. 14-21). The unique peak of each compound was integrated against the peak of CMP-OMe (four protons of CMP-OMe at 9.7 ppm, FIG. 14), which was known to be inert to singlet oxygen oxidation. […] However, we observed 77% decrease of the proton peak of the aminoacrylate linker after the irradiation (FIG. 21). […] PD 9 had negligible coumarin emission compared to that of free coumarin at the equimolar concentration. In the presence of 10 μM of 9, MCF-7 cells were incubated for 24 h to activate dPS. Then, the samples were irradiated by visible light (540±10 nm, 8 mW/cm^2, 30 min). […] The released free coumarin was also detected and quantified by HPLC based on the standard curve of free coumarin. As such, almost 99% of 9 released coumarin while only 64% of dPS of 9 were activated when irradiated.

[6] = Photooxygenation kinetics (DPBF fluorescence, Rose Bengal, Stern-Volmer analysis); type: physicochemical; details: acetone, 15° C., 540±10 nm
Experimental: Fluorescence emission was used to monitor the disappearance of 1,3-diphenylisobenzofuran (DPBF) which was recorded on a LS 50 B luminescence spectrometer (Perkin Elmer, USA). DPBF (5×10^−2 M) and Rose Bengal (0.5×10^−5 M) stock solution in dry acetone was prepared. In addition, varying known concentrations of 2,3-dimethylbutene, (E)-N-phenyl-3-(piperidin-1-yl)acrylamide (a model compound with aminoacrylate linker) and Combretastatin A-4 (CA-4) were freshly prepared. Using a tungsten-halogen light source filtered at 540±10 nm (Lumacare), the appropriate solution of DPBF-Rose Bengal with or without a substrate placed in a fluorescence cuvette and held in a thermostated cell at 15° C. with stirring was irradiated with 0.1 mW/cm^2 light intensity at 30 sec interval. The fluorescence intensity of DPBF at 455 nm as a function of time provided the rate of photooxygenation of DPBF. […] As such, the reaction kinetics could be determined in light of the following analysis.
Using the above kinetic analysis and equation (5), the second order rate constant (k) of the aminoacrylate linker was experimentally determined to be 2.5×10^7 M^−1s^−1, wherein k=kr+kq
Then, β value was calculated from the plot of S0/Sx vs. [A]. […] From the kd value of the solvent (kd of acetone=38,400 s^−1), β value of A was calculated. […]

T1 sequence (P02554 whole entry): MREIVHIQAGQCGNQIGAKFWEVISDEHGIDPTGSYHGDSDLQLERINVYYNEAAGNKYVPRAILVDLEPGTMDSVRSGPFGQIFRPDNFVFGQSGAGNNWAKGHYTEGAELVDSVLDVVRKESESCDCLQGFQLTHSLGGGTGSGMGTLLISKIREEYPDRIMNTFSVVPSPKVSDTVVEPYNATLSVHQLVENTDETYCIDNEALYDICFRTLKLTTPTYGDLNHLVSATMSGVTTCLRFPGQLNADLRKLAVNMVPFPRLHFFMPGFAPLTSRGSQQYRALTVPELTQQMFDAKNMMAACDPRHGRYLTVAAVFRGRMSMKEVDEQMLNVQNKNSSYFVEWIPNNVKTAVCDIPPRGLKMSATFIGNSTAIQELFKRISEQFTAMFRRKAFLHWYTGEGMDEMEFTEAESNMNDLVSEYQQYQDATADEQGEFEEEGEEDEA
T1 sequence (P02550 whole entry partner): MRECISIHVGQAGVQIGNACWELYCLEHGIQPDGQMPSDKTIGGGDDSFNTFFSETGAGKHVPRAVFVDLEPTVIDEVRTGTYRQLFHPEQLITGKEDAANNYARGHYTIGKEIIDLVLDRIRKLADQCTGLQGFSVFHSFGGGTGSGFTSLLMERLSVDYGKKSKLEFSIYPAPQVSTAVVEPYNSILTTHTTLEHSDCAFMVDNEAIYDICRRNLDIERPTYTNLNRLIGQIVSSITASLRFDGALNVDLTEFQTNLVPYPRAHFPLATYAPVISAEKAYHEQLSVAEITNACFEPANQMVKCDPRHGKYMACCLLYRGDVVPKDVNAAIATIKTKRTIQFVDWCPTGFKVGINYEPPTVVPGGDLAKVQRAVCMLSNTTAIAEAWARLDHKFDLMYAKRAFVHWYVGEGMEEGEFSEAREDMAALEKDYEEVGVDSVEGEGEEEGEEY

Structure (SMILES): COc1ccc(/C=C\c2cc(OC)c(OC)c(OC)c2)cc1O [CA-4, Combretastatin A-4]
- Pattern of kinetic trace of tubulin polymerization ([1]; 3 μM): inhibitor
- inhibition at 3 µM ([1]; read-out: Inhibition of tubulin polymerization): 100%
- IC50 [2]: 8 nM
- IC50 [3]: 9 nM
- Significant tumor growth delay by CA4 itself [4]: not seen
- Oxidation under the irradiation condition ([5]; 1H-NMR): not oxidized at all

Structure (SMILES): O=C(/C=C/N1CCCCC1)Nc1ccccc1 [Compound 9 (Example 3), (E)-N-Phenyl-3-(piperidin-1-yl)acrylamide]
- Second order rate constant (k = kr+kq) with singlet oxygen [6]: 2.5e+07 M⁻¹ s⁻¹
- Decrease of the proton peak after irradiation ([5]; CDCl3, 1H-NMR): 77%
